Assays:
[1] = system: monocytes (adherent peripheral blood mononuclear cells); experiment: Suppression of Alzheimer's peptide induced monocyte TNF-alpha production (ELISA); type: cell-based, healthy volunteers; settings: adherent cells cultured 1 hour or 2 hours in 30% xenon by volume; 1 ug/ml LPS and 10 μM Aβ (1-42) for 24 h; supernatant ELISA; FIG. 1
Experimental: 10 ml of heparinized blood was extracted from healthy volunteers and peripheral blood mononuclear cells were isolated by centrifugation over a ficoll gradient. Cells were subsequently washed in 2× volume phosphate buffered saline, and resuspended in RPMI media supplemented with 10% fetal calf serum. Cells were incubated at a concentration of 10 million cells per ml in 6-well plates in a volume of 2 ml per well. Cells were cultured for 24 hours at 37 Celsius in a fully humidified atmosphere with 5% CO2, subsequent to which non-adherent cells were removed by washing with PBS. Adherent cells were subsequently divided into […], one plate incubated at normoxic tissue culture, the second plate cultured for 1 hour in 30% xenon by volume, and the third tissue cultured for 2 hours in 30% volume. Cells were treated with control media, 1 ug/ml LPS and 10 μM of amyloid beta peptide Aβ (1-42) for 24 h. Supernatant was collected and assessed for TNF-alpha production by ELISA.

CD1c dendritic cells = experiment: Suppression of Alzheimer's peptide induced dendritic cell IL-12 production (ELISA); type: cell-based, healthy volunteers; settings: monocyte-derived CD1c dendritic cells; 1 ug/ml LPS and 10 μM Aβ (1-42) for 24 h; supernatant ELISA; FIG. 2
Experimental: Monocytes from adherent PBMC were isolated as described in Example 1. Dendritic cells were generated by 7 day culture in IL-4 (10 ng/ml) and GM-CSF (20 ng/ml). Media was changed every two days. On day 7, purification of CD1c dendritic cells was performed and cells were cultured in control media, 1 ug/ml LPS and 10 μM of amyloid beta peptide Aβ (1-42) for 24 h. Supernatant was collected and assessed for IL-12 production by ELISA.

## [Xe] [xenon gas, xenon]
[1]
  induced TNF-alpha production: suppression of induced TNF-alpha production was observed
CD1c dendritic cells
  induced IL-12 production: suppression of induced IL-12 production was observed
